Test results as given in the supplement of paper PMC8671470.

Key:
Conditions in all cases: 72 h
HL-60 [1] = assay: cell viability (% survival relative to DMSO control); higher = less cytotoxic
In short: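 HL-60 cells in RPMI 1640 with 10% FBS were rescreened against the full library on 384-well plates at five tenfold concentrations, 1–10,000 nM, in duplicate. Each screen was run with DMSO or 100 nM of one of three metabolic inhibitors, for 72 h at 37 °C, 5% CO2. Viability was read by CellTiter-Glo and normalised to DMSO and 10 μM proteasome-inhibitor wells. Where given, area under the curve came from four-parameter log-logistic fits (drc, PharmacoGx).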

LAMA-84 [2] = assay: cell viability (% survival relative to DMSO control, bortezomib = 0%); higher = less cytotoxic
In short: (§1)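 Fifteen myeloid leukaemia cell lines (10 AML, 5 CML) were seeded at a density titrated to the linear growth range into 384-well plates pre-printed with compounds at 1, 10, 100, 1000 or 10000 nM in duplicate. Plates were incubated for 72 h at 37 °C with 5% CO2. Viability was then read by CellTiter-Glo luminescence. Each value is percent survival averaged over the duplicates, with vehicle set to 100% and a 10 µM positive control to 0%.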

Mono-Mac-6 [3] = assay: as above
In short: as §1

K-562 [4] = assay: as above
In short: as §1

ML-2 [5] = assay: as above
In short: as §1

BV-173 [6] = assay: as above
In short: as §1

KU-812 [7] = assay: as above
In short: as §1

HEL [8] = assay: as above
In short: as §1

MV4-11 [9] = assay: as above
In short: as §1

NOMO-1 [10] = assay: as above
In short: as §1

SHI-1 [11] = assay: as above
In short: as §1

THP-1 [12] = assay: as above
In short: as §1

HL-60 [13] = assay: as above
In short: as §1

LAMA-84 [14] = test system: LAMA-84
In short: (§2)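 The IC50 was read from log-logistic dose–response fits. Fifteen myeloid leukaemia lines were exposed for 72 h at 37 °C with 5% CO2 to five tenfold doses from 1 to 10,000 nM in duplicate. ATP luminescence, normalised to vehicle and to a 10 µM positive control, was fitted with four parameters.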

KG-1 = test system: KG-1
In short: as §2

Mono-Mac-6 [15] = test system: Mono-Mac-6
In short: as §2

K-562 [16] = test system: K-562
In short: as §2

ML-2 [17] = test system: ML-2
In short: as §2

BV-173 [18] = test system: BV-173
In short: as §2

MOLM-13 = test system: MOLM-13
In short: as §2

KU-812 [19] = test system: KU-812
In short: as §2

HEL [20] = test system: HEL
In short: as §2

MV4-11 [21] = test system: MV4-11
In short: as §2

NOMO-1 [22] = test system: NOMO-1
In short: as §2

SHI-1 [23] = test system: SHI-1
In short: as §2

THP-1 [24] = test system: THP-1
In short: as §2

KCL-22 = test system: KCL-22
In short: as §2

HL-60 [25] = test system: HL-60
In short: as §2

Oc1ccc(Nc2nc(-c3ccc(Cl)cc3)cs2)cc1 [SKI II]
cell viability [%], HL-60 [1]
Conditions | 0.001 µM | 0.01 µM | 0.1 µM | 1 µM | 10 µM
co-treatment: AZD3965 100 nM | 101.4 | 103 | 104 | 104 | 15.7
co-treatment: DMSO vehicle | 102 | 105 | 97.6 | 100 | 22.1
co-treatment: GSK2194069 100 nM | 99 | 94.2 | 99.8 | 101 | 30.7
co-treatment: pictilisib 100 nM | 96.5 | 102 | 101 | 88 | 3.95

cell viability [%]
Conditions | 1 nM | 10 nM | 100 nM | 1000 nM | 10000 nM
BV-173 [6] | 104 | 98.3 | 96.7 | 70.5 | 0.732
HEL [8] | 102 | 109 | 111 | 95.5 | 5.26
HL-60 [13] | 88.9 | 110 | 97.7 | 77.7 | 11.2
K-562 [4] | 99.5 | 107 | 107 | 75.2 | 36.8
KU-812 [7] | 95.5 | 101 | 106 | 90.8 | 20.6
LAMA-84 [2] | 105 | 99.9 | 96.1 | 96.4 | 34.2
ML-2 [5] | 93.8 | 97.2 | 99.3 | 89.7 | 44
MV4-11 [9] | 97.2 | 99.2 | 114 | 95.9 | 4.54
Mono-Mac-6 [3] | 99.2 | 97.8 | 100 | 93.5 | 14.3
NOMO-1 [10] | 97.3 | 104 | 104 | 99.3 | 66.1
SHI-1 [11] | 94.9 | 97.8 | 99.7 | 96 | 53.3
THP-1 [12] | 100 | 96.8 | 103 | 86.4 | 8.38

Conditions | IC50 (cell viability) [µM]
BV-173 [18] | 1.54
HEL [20] | 3.22
HL-60 [25] | 2.26
K-562 [16] | 2.51
KCL-22 | 3.07
KG-1 | 3.93
KU-812 [19] | 2.9
LAMA-84 [14] | 6.79
ML-2 [17] | 5.58
MOLM-13 | 8.97
MV4-11 [21] | 3.2
Mono-Mac-6 [15] | 4.12
NOMO-1 [22] | > 10
SHI-1 [23] | > 10
THP-1 [24] | 2.48

O=C(O)c1cc(N=Nc2ccc(S(=O)(=O)Nc3ccccn3)cc2)ccc1O [Sulfasalazine]
cell viability [%], HL-60 [1]
Conditions | 0.001 µM | 0.01 µM | 0.1 µM | 1 µM | 10 µM
co-treatment: AZD3965 100 nM | 101.5 | 109 | 96 | 97.23 | 111
co-treatment: DMSO vehicle | 101 | 101.7 | 98.9 | 100.2 | 104
co-treatment: GSK2194069 100 nM | 105 | 103 | 101 | 103 | 105
co-treatment: pictilisib 100 nM | 107 | 103 | 93.57 | 92.3 | 112

cell viability [%]
Conditions | 1 nM | 10 nM | 100 nM | 1000 nM | 10000 nM
BV-173 [6] | 106 | 90.3 | 113 | 99.7 | 112
HEL [8] | 111 | 91.9 | 114 | 94 | 111
HL-60 [13] | 99.4 | 71.4 | 135 | 106 | 70.8
K-562 [4] | 100 | 91.6 | 120 | 90.3 | 131
KU-812 [7] | 110 | 98.2 | 107 | 108 | 102
LAMA-84 [2] | 105 | 97.1 | 101 | 106 | 105
ML-2 [5] | 106 | 87.4 | 118 | 112 | 102
MV4-11 [9] | 101 | 89.1 | 112 | 95.9 | 103
Mono-Mac-6 [3] | 105 | 92.7 | 120 | 103 | 104
NOMO-1 [10] | 112 | 101 | 99 | 101 | 102
SHI-1 [11] | 107 | 87.6 | 114 | 97.8 | 95.7
THP-1 [12] | 107 | 101 | 106 | 101 | 106

Conditions | IC50 (cell viability) [µM]
BV-173 [18] | > 10
HEL [20] | > 10
HL-60 [25] | > 10
K-562 [16] | > 10
KCL-22 | > 10
KG-1 | > 10
KU-812 [19] | > 10
LAMA-84 [14] | > 10
ML-2 [17] | > 10
MOLM-13 | > 10
MV4-11 [21] | > 10
Mono-Mac-6 [15] | > 10
NOMO-1 [22] | > 10
SHI-1 [23] | > 10
THP-1 [24] | > 10
